Experimental data published in patent publication US10413562B2, “Compositions and methods for the production of pyrimidine and pyridine compounds with BTK inhibitory activity” (Merck Patent GmbH, priority 2011, dated 2019).
pIC50: −log10 of the molar value.

Legend:
NZB/W F1 mice = assay: Interferon-alpha accelerated systemic lupus erythematosus (SLE) mouse model; type: in vivo; conditions: ADV-IFN-alpha accelerated SLE, oral daily 0.1, 0.3, 1 or 3 mg/kg from day 14
Method: 1-(4-(((6-amino-5-(4-phenoxyphenyl)pyrimidin-4-yl)amino)methyl)piperidin-1-yl)prop-2-en-1-one, designated as “CPD. B”, was evaluated in an interferon-alpha accelerated SLE mouse model. NZB/W F1 mice received i.v. injection at day 0 and day 1 of 10^8 infectious units of adenovirus (ADV-IFN-α) to deliver a transient overexpression on interferon alpha. Oral dosing of the different group treatments was initiated on day 14 and continued daily at 24 hour intervals until the end of the study. Treatment groups consisted of 20% Kleptose HPB in Na-citrate buffer (vehicle) or 0.1, 0.3, 1, or 3 mg/kg of Cpd. […] As shown in Panel 1B Cpd. […] FIG. 2 presents data from another interferon-alpha accelerated SLE experiment in mice. NZB/W F1 mice received i.v. injections at day 0 and day 1 of 10^8 infectious units of adenovirus (ADV-IFN-α) to deliver a transient overexpression on interferon alpha. Oral dosing of the different group treatments (n=10) was initiated on day 14 and continued daily at 24 hour intervals until the end of the study. Treatment groups consisted of 20% Kleptose HPB in Na-citrate buffer (vehicle), 0.1, 0.3, 1, or 3 mg/kg of Cpd. B or Cell Cept®. […] Statiscal analysis was performed using Two way ANOVA with Bonferroni post test with all groups compared to vehicle treated group (*=p<0.05, **=p<0.01, ***=p<0.001).

PBMC = assay: Time dependent PBMC IC50 assay; type: cell-based
Method: Compounds described by embodiments of the present invention were assayed using a time dependent PMBC assay.

`C=CC(=O)N1CCC(CNc2ncnc(N)c2-c2ccc(Oc3ccccc3)cc2)CC1` [Cpd. B, 1-(4-(((6-amino-5-(4-phenoxyphenyl)pyrimidin-4-yl)amino)methyl)piperidin-1-yl)prop-2-en-1-one] was tested, and the disease activity (NZB/W F1 mice) was “reduces the disease activity in a dose-dependent manner”.

`C=CC(=O)N1C2CCC1CC(CNc1ncnc(N)c1-c1ccc(Oc3ccccc3)cc1)C2` (centres unmarked) [Compound A48, 1-(3-(((6-amino-5-(4-phenoxyphenyl)pyrimidin-4-yl)amino)methyl)-8-azabicyclo[3.2.1]octan-8-yl)prop-2-en-1-one] was tested, and the pIC50 (PBMC) was > 6.00.
